System: Substance P
Assay: Tachykinin antagonistic action: suppression of substance P-induced contraction of isolated guinea pig ileum
Design: species or system guinea pig (Hartley strain, male)
Conditions: isotonic contraction, substance P 10^-8 M, 10 minutes treatment with test drug
Protocol: The compounds of the present invention were tested by an assay using ileum isolated from guinea pigs. Male guinea pigs of the Hartley strain (400 g to 500 g) were fainted and bled out. Then, ileum was isolated and hung in an organ bath filled with a nutritive solution. After an equilibration for 60 minutes, isotonic contraction was recorded. Substance P, a tachykinin agonist, was administered in a dose of 10^-8 M every 15 minutes. Administration of substance P was repeated for 3 to 4 times and it was confirmed that a contraction height for each run became constant. The constant contraction was used as a control. A treatment with the test drug was carried out for 10 minutes and then substance P was administered again and a concentration vs. action curve was prepared. A 50% suppression concentration (lC50) was determined from the concentration vs. action curve of the test drug. The compound of the present invention was used as a test drug and an example of the result of its antagonistic action to substance P is shown in Table 1: […]

`CC(=O)Oc1ccc(/C=C/C(=O)NCCCN(CCCCN(CCCNC(=O)/C=C/c2ccc(OC(C)=O)cc2)C(=O)/C=C/c2ccc(OC(C)=O)cc2)C(=O)/C=C/c2ccc(OC(C)=O)cc2)cc1` [Compound 1, N1,N5,N10,N14-Tetrakis[3-(4-acetoxyphenyl)-2-propenoyl]tetraazatetradecane] and `O=C(/C=C/c1ccc(O)cc1)NCCCN(CCCCN(CCCNC(=O)/C=C/c1ccc(O)cc1)C(=O)/C=C/c1ccc(O)cc1)C(=O)/C=C/c1ccc(O)cc1` [Compound 2, N1,N5,N10,N14-Tetrakis[3-(4-hydroxyphenyl)-2-propenoyl]tetraazatetradecane] are within 1.5-fold of each other in IC50: 14 nM for the first, 11 nM for the second.

`COc1cc(/C=C/C(=O)NCCCN(CCCCN(CCCNC(=O)/C=C/c2ccc(OC(C)=O)c(OC)c2)C(=O)/C=C/c2ccc(OC(C)=O)c(OC)c2)C(=O)/C=C/c2ccc(OC(C)=O)c(OC)c2)ccc1OC(C)=O` [Compound 3, N1,N5,N10,N14-Tetrakis[3-(4-acetoxy-3-methoxyphenyl)-2-propenoyl]tetraazatetradecane] and `COc1cc(/C=C/C(=O)NCCCN(CCCCN(CCCNC(=O)/C=C/c2ccc(O)c(OC)c2)C(=O)/C=C/c2ccc(O)c(OC)c2)C(=O)/C=C/c2ccc(O)c(OC)c2)ccc1O` [Compound 4, N1,N5,N10,N14-Tetrakis[3-(4-hydroxy-3-methoxyphenyl)-2-propenoyl]tetraazatetradecane] are within 1.5-fold of each other in IC50: 710 nM for the first, 580 nM for the second.
